# Patent US8993574B2, “Pyrrole antifungal agents” (F2G Ltd, priority 2008, dated 2015)
# Legend:
# [1] = Oral bio-availability and tissue distribution; conditions: in vivo
# Aspergillus flavus [2] = experiment: MIC, RPMI medium; format: cell-based; conditions: Aspergillus flavus, MIC banded into grades, read-out: MIC grade, A. flavus
# How it was run: (§1)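 RPMI (2% glucose, 0.135 M MOPS, pH 7.0) microdilution; drug 50-0.05 mg/L doubling series; inoculum 1−2×10^4 cfu/mL; 24-48 h, 35° C; OD485; MIC = lowest conc. with >80% inhibition vs drug-free control.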
# Aspergillus niger [3] = experiment: MIC, RPMI medium; format: cell-based; conditions: Aspergillus niger, MIC banded into grades, read-out: MIC grade, A. niger
# How it was run: as §1
# [4] = system: Aspergillus fumigatus AF210; experiment: MIC, RPMI medium; format: cell-based; conditions: Aspergillus fumigatus, AF210, MIC banded into grades, read-out: MIC grade, A. fumigatus 210
# How it was run: as §1
# A. fumigatus A1163 = experiment: Temporary (TI) neutropenic murine survival model of disseminated aspergillosis; format: in vivo, CD-1 mouse; conditions: for survival at day 18: TI model with prolonged observation; for survival at day 18 / survival benefit / survival: oral; for survival benefit / survival: TI survival model
# Method: Methods: Temporary (TI) or persistently (PI) neutropenic CD-1 mouse models of disseminated aspergillus were used. 3 days post immunosuppression with cyclophosphamide (200 mg/kg ip) mice were infected IV with an LD90 challenge of A. fumigatus A1163. Treatment commenced 5 h post infection and animals were treated for 9 days and observed for either 2 days or 7 days following cessation of treatment. […] 2-(1,5-Dimethyl-3-phenyl-1H-pyrrol-2-yl)-N-{4-[4-(4,6-dimethyl-pyridin-2-yl)-piperazin-1-yl]-phenyl}-2-oxo-acetamide was dosed orally as a suspension in HPMC/Tween 80 once or twice daily. Caspofungin dosed IP was used as a comparator.
# Aspergillus flavus [5] = experiment: MIC, YAG medium; format: cell-based; conditions: Aspergillus flavus, 24 h, 24 h at 35° C, MIC banded into grades, read-out: MIC grade, A. flavus
# How it was run: (§2)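 Broth microdilution in YAG medium tests compound over 50-0.05 mg/L against spores at 1−2×10^4 cfu/mL. After 24 h incubation at 35° C, optical density at 485 nm gives growth, and the MIC is the lowest concentration reducing it by more than 70% relative to untreated control.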
# Aspergillus terreus AT4 = experiment: MIC, YAG medium; format: cell-based; conditions: Aspergillus terreus, 24 h at 35° C, MIC banded into grades, read-out: MIC grade, A. terreus
# How it was run: as §2
# Aspergillus niger [6] = experiment: MIC, YAG medium; format: cell-based; conditions: Aspergillus niger, 24 h at 35° C, MIC banded into grades, read-out: MIC grade, A. niger
# How it was run: as §2
# [7] = system: Aspergillus fumigatus AF210; experiment: MIC, YAG medium; format: cell-based; conditions: Aspergillus fumigatus, 24 h at 35° C, MIC banded into grades, read-out: MIC grade, A. fumigatus 210
# How it was run: as §2
# [8] = system: Aspergillus fumigatus AF293; experiment: MIC, YAG medium; format: cell-based; conditions: Aspergillus fumigatus, 24 h at 35° C, MIC banded into grades, read-out: MIC grade, A. fumigatus
# How it was run: as §2
# Aspergillus terreus AT49 = experiment: MIC, YAG medium; format: cell-based; conditions: Aspergillus terreus, 24 h at 35° C, MIC banded into grades, read-out: MIC grade, A. terreus 49
# How it was run: as §2
structure (smiles),measurement,setting,value
"Cc1cc(C)nc(N2CCN(c3ccc(NC(=O)C(=O)c4c(-c5ccccc5)cc(C)n4C)cc3)CC2)c1 [Example 1, 2-(1,5-Dimethyl-3-phenyl-1H-pyrrol-2-yl)-N-{4-[4-(4,6-dimethyl-pyridin-2-yl)-piperazin-1-yl]-phenyl}-2-oxo-acetamide]",tissue distribution,[1],good
same,oral bio-availability,[1]; po,good
same,MIC,Aspergillus flavus [2],< 1 µg/mL
same,MIC,Aspergillus niger [3],< 1 µg/mL
same,MIC,[4],< 1 µg/mL
same,survival at day 18,A. fumigatus A1163; 10 mg/kg BD,80%
same,survival at day 18,A. fumigatus A1163; 20 mg/kg OD,70%
same,survival benefit,A. fumigatus A1163; 1.25 mg/kg per day,little benefit
same,survival benefit,A. fumigatus A1163; 2.5 mg/kg per day,little benefit
same,survival,A. fumigatus A1163; 5 mg/kg per day,80%
same,survival,A. fumigatus A1163; 10 mg/kg/day,90%
same,survival,A. fumigatus A1163; 20 mg/kg/day,100%
same,survival,A. fumigatus A1163; 30 mg/kg/day,100%
same,survival,A. fumigatus A1163; 40 mg/kg/day,100%
same,efficacy compared with caspofungin (CAS) dosed IP,A. fumigatus A1163; in these models (TI and PI),at least as effective as CAS
same,MIC,Aspergillus flavus [5],< 1 µg/mL
same,MIC,Aspergillus terreus AT4,< 1 µg/mL
same,MIC,Aspergillus niger [6],< 1 µg/mL
same,MIC,[7],< 1 µg/mL
same,MIC,[8],< 1 µg/mL
same,MIC,Aspergillus terreus AT49,< 1 µg/mL
